# Test results reported in ChEMBL document CHEMBL1201862, “PubChem BioAssay data set” (2004).
#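 Briefly, cells in 96-well plates were exposed to five compound concentrations for 48 h, and endpoints were estimated by linear interpolation. The concentration for 50% growth inhibition is given as GI50.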 Calls of active or inactive are those of the source. Rule as the data show it: active = GI50 up to about 1.1 µM and inactive = higher.
# Key:
# Assay in all cases: DTP human tumour cell line panel, 48 h
# [1] = tested on: OVCAR-8
# [2] = tested on: OVCAR-5
# [3] = tested on: SNB-19
# [4] = tested on: RXF 393
# [5] = tested on: Malme-3M
# [6] = tested on: OVCAR-4
# [7] = tested on: HCT-15
# [8] = tested on: MDA-MB-435
# [9] = tested on: A549
# [10] = tested on: SK-MEL-5
# [11] = tested on: 786-0
# [12] = tested on: K562
# [13] = tested on: SR
# [14] = tested on: NCI-H460
# [15] = tested on: HOP-92
# [16] = tested on: COLO 205
# [17] = tested on: BT-549
# [18] = tested on: HL-60
# [19] = tested on: MOLT-4
# [20] = tested on: CCRF-CEM
Structure (SMILES),GI50 [1],GI50 [2],GI50 [3],GI50 [4],GI50 [5],GI50 [6],GI50 [7] [µM],GI50 [8],GI50 [9],GI50 [10],GI50 [11],GI50 [12],GI50 [13],GI50 [14],GI50 [15],GI50 [16],GI50 [17],GI50 [18],GI50 [19],GI50 [20]
Cc1nc2ccccc2nc1N1CCCC1,> 100 µM (inactive),> 100 µM (inactive),> 100 µM (inactive),> 100 µM (inactive),> 100 µM (inactive),> 100 µM (inactive),> 100,> 100 µM (inactive),> 100 µM (inactive),> 100 µM (inactive),> 100 µM (inactive),> 100 µM (inactive),> 100 µM (inactive),> 100 µM (inactive),> 100 µM (inactive),> 100 µM (inactive),> 100 µM (inactive),–,–,–
Cn1c(-c2ccccc2)cc(-c2ccc3c(c2)OCO3)c1-c1cccs1,> 100 µM (inactive),> 100 µM (inactive),> 100 µM (inactive),> 100 µM (inactive),–,> 100 µM (inactive),> 100,> 100 µM (inactive),> 100 µM (inactive),> 100 µM (inactive),> 100 µM (inactive),> 100 µM (inactive),> 100 µM (inactive),> 100 µM (inactive),> 100 µM (inactive),> 100 µM (inactive),> 100 µM (inactive),> 100 µM (inactive),> 100 µM (inactive),> 100 µM (inactive)
COC(=O)c1cc(NC(=O)Cn2c3ccccc3c3ccccc32)cn1C,30.1 µM (inactive),> 100 µM (inactive),39.4 µM (inactive),39.1 µM (inactive),30.2 µM (inactive),17.3 µM (inactive),92.7,78.5 µM (inactive),26.7 µM (inactive),65.8 µM (inactive),29.7 µM (inactive),59.2 µM (inactive),49.5 µM (inactive),57.5 µM (inactive),–,45 µM (inactive),24.9 µM (inactive),> 100 µM (inactive),61 µM (inactive),39.3 µM (inactive)
O=C(C(=C(I)I)c1ccccc1)c1ccccc1,37.2 µM (inactive),86.3 µM (inactive),29.9 µM (inactive),–,19.7 µM (inactive),39.9 µM (inactive),29.9,31.1 µM (inactive),36.9 µM (inactive),16.8 µM (inactive),> 10 µM (inactive),4.7 µM (inactive),14.2 µM (inactive),27.5 µM (inactive),33 µM (inactive),27.5 µM (inactive),55.7 µM (inactive),13.2 µM (inactive),19.8 µM (inactive),1.08 µM (active)
CCOC(=O)C1CN(C2CC2)CCC1=O (configuration not stated),> 100 µM (inactive),> 100 µM (inactive),> 100 µM (inactive),> 100 µM (inactive),> 100 µM (inactive),> 100 µM (inactive),> 100,> 100 µM (inactive),> 100 µM (inactive),> 100 µM (inactive),> 100 µM (inactive),> 100 µM (inactive),> 100 µM (inactive),> 100 µM (inactive),–,> 100 µM (inactive),> 100 µM (inactive),> 100 µM (inactive),> 100 µM (inactive),> 100 µM (inactive)
C[C@H](OC(=O)/C=C/c1ccc(O)c(O)c1)[C@H](C)OC(=O)/C=C/c1ccc(O)c(O)c1,6.15 µM (inactive),14 µM (inactive),7.93 µM (inactive),6.87 µM (inactive),14.7 µM (inactive),5.09 µM (inactive),4.71,4.84 µM (inactive),7.94 µM (inactive),6.12 µM (inactive),4.73 µM (inactive),4.61 µM (inactive),8.18 µM (inactive),4.11 µM (inactive),15 µM (inactive),20.3 µM (inactive),10.4 µM (inactive),–,2.49 µM (inactive),–
COc1cc(C2c3c(ccc4ccccc34)C(=O)C3CCC(=O)N32)cc(OC)c1O (configuration not stated),> 25 µM (inactive),> 25 µM (inactive),> 25 µM (inactive),> 25 µM (inactive),–,> 25 µM (inactive),> 25,> 25 µM (inactive),> 25 µM (inactive),–,> 25 µM (inactive),> 25 µM (inactive),> 25 µM (inactive),> 25 µM (inactive),> 25 µM (inactive),> 25 µM (inactive),> 25 µM (inactive),> 25 µM (inactive),> 25 µM (inactive),19.9 µM (inactive)
CCCCNc1nc(N)nc(Nc2ccc(Br)cc2)c1N=O,70.5 µM (inactive),77.4 µM (inactive),> 100 µM (inactive),32.7 µM (inactive),> 100 µM (inactive),–,78,> 100 µM (inactive),33.7 µM (inactive),> 100 µM (inactive),17.5 µM (inactive),38.9 µM (inactive),6.43 µM (inactive),70 µM (inactive),–,47 µM (inactive),44.7 µM (inactive),17.9 µM (inactive),18.8 µM (inactive),42.1 µM (inactive)
